Measurements as given in patent US20070225213A1, “Nucleic acid carriers for delivery of therapeutic agents” (priority 2006, published 2007).

Key:
COS7 = assay: Effect of plating time on uptake of NAC-MTN and MTN, fluorescence (Example 11); assay type: cell-based, green monkey
Experimental: The effect of plating time on the differential rates of uptake between NAC-MTN and MTN were assayed in cells treated <1 hour and 24 hours after plating.
On day 1, MCF7, COS7, 3T3, and BHK21 cells were plated out in a standard tissue culture plate. After incubation of 20 minutes samples were added to cells in rows A, C, E, and G. Cells were incubated at 37C in a standard atmosphere of 5%CO2.
On day 2, samples were added to rows D, F, and H and the fluorescence was obtained EX620/EM680 S=80. Samples were removed from A,C,E and G, replaced with media and fluorescence read again. On day 2 observed significant drug toxicity in cells of rows A,C, E, G. Sample addition was postponed in row B since MCF7 were not yet confluent.
On day 3, added samples to cells in row B containing confluent MCF7's, removed samples from rows D, F, and H replaced with media and read fluorescence.
Fluorescence data from cells taken after removal of media was used to quantitate total MTN retained in the cells. Fluorescence data were converted to mg/ml MTN using a standard curve prepared with free MTN or NAC-MTN.
The percentage difference in fluorescence between cells treated with NAC-MTN or MTN alone was used to compare relative drug uptake.
The MTN fluorescence ratios were obtained by dividing MTN fluorescence of cells incubated for 24 hours by fluorescence of cells incubated 30 minutes. […] The uptake in BHK21 was roughly equivalent for NAC-MTN regardless of plate adherence, however it should be noted that BHK21 adhere very rapidly to the plate.
Fluorescence data were converted to micromolar drug concentrations (uM MTN) using a standard curve for either nucleic acid bound or unbound drug, and drug uptake ratios were obtained by dividing the t(24 hour)/t(30 min.). The ratios of absolute drug concentration per well show more dramatic differences in uptake as shown below.

BHK21 = assay: Toxicity of NAC-MTN vs CD-MTN and MTN, MTT (Example 9, EX042105); assay type: cell-based, hamster
Experimental: FIG. 4. […] The relative toxicity of NAC-MTN was compared with MTN and CD-MTN in four cell lines, MCF7(breast cancer), COS7green monkey kidney (SV40 transformed), 3T3 (mouse fibroblast), and BHK21(hamster kidney). Cells were treated with identical amounts of MTN formulated as either NAC-MTN, MTN only, or poly-beta-cyclodextrin-sulfylbutylether(CD-MTN). After an incubation period, cell viability was assayed with MTT assay. The differences in toxicity between NAC-MTN and MTN or NAC-MTN and CD-MTN are shown as % difference. Greater percentage difference correlates to more reduction in relative NAC-MTN toxicity.
MCF7, COS7, 3T3, and BHK21 cells were plated out in duplicate rows of equivalent cell density in 100ul final volume. Initial cell densities were 2000 cells/well.
Preparing NAC-MTN, CD-MTN, and MTN only. Combined 180 ul of 0.05 mg/ml MTN with […] 0.1 mg/ml herring sperm genomic DNA (HSGDNA, Promega), 1500 ul of 2× DMEM media containing 20% FBS to give 3.0 ml final volume and 12% final drug loading in the dsDNA. For MTN only, 180 ul of MTN was combined with 1320 ul H2O and 1500 ul 2× DMEM. […]
Aspirated media in plate and replaced with 50 ul of 0.5 mg/ml MTT in 1× media, incubated 3 hours, aspirated, air dried 5 min and dissolved in 100 ul of isopropyl, read OD at A570. […]

SMILES: O=C1c2c(O)ccc(O)c2C(=O)c2c(NCCNCCO)ccc(NCCNCCO)c21 [MTN, mitoxantrone]
- MTN FLUOR Ratio of t(24)/t(<1) (COS7): 0.70
- FLUOR (MTN fluorescence in cells) (COS7; cells treated 24 hour after plating): 15289
- FLUOR (MTN fluorescence in cells) (COS7; cells treated <1 hour after plating): 13814
- Ratio uM MTN of t(24)/t(<1) (COS7; from standard curve for bound or unbound drug): 1.2
- % tox. relative to media only (BHK21; 2 uM final MTN, MTT 48 hours after adding samples): 51.76%
- toxicity (est.) (BHK21; after 20-24 hour incubation with MTN, 2 uM): ~50%
